Here are results for eight compounds from patent US11492335B2, “Aryl or heteroaryl triazolone derivatives or salts thereof, or pharmaceutical compositions comprising the same” (YUHAN CORPORATION, priority 2018, dated 2022).

Common to all, as to type: biochemical
Assay [1] addresses T1, recombinant human MAO-A (monoamine oxidase-A) (Homo sapiens, UniProt P21397).
T1 construct: purchased Sigma-Aldrich
T1 sequence (P21397 1-527): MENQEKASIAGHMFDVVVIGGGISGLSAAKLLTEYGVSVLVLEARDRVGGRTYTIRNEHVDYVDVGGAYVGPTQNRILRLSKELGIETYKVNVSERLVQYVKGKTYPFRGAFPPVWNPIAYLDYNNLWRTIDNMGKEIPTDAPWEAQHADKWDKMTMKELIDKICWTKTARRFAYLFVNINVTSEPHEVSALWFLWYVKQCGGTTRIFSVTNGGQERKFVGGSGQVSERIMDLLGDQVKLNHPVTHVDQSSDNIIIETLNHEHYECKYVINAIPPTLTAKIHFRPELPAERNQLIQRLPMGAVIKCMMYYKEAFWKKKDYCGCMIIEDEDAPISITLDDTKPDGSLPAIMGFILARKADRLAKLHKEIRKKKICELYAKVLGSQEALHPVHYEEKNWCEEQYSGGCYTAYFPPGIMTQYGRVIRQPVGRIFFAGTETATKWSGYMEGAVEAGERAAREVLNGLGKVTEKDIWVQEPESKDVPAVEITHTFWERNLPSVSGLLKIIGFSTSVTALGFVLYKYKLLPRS
The experiment in a line: Activity on recombinant human MAO-A, Amplex Red method, 0.5 mM tyramine substrate. As to conditions: read-out: Inhibitory Activity (IC50, nM) MAO-A. The procedure, abridged:
(§1)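 HRP-coupled Amplex Red H2O2 assay, 50 mM sodium phosphate pH 7.4; compounds (8-point 1:3 series, final DMSO <1%) preincubated with enzyme 30 min at 37° C, then 200 uM Amplex Red, 1 U/mL HRP and substrate (MAO-A 0.5 mM tyramine; MAO-B 1 mM benzylamine) added. Resorufin fluorescence (ex 544/em 590 nm) read over 1-2 h; IC50 from four-parameter logistic fit.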

The target of assay [2] is T2, recombinant human DAO (diamine oxidase) (Homo sapiens, UniProt P19801).
T2 construct: purchased R&D systems
T2 sequence (P19801 20-751): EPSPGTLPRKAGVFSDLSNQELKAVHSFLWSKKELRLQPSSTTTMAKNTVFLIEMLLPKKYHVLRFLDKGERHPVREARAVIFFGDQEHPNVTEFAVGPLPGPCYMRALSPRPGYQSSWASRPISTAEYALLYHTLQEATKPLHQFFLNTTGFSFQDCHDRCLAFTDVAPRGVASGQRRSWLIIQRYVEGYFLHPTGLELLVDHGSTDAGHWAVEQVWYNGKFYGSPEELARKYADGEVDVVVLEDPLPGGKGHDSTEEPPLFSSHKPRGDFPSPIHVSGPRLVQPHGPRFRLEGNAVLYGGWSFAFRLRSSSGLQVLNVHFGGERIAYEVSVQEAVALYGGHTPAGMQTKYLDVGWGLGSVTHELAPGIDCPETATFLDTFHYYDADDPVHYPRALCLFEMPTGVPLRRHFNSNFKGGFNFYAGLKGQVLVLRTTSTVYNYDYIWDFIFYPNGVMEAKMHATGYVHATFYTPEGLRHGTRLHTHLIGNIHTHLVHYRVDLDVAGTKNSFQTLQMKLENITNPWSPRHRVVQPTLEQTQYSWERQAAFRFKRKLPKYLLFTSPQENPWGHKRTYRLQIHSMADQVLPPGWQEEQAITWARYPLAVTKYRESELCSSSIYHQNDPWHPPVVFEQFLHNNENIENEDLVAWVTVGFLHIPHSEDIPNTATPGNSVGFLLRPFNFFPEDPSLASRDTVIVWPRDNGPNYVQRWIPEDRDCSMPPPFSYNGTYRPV
Nature of the assay: Activity on recombinant human DAO, Amplex Red method, 1 mM putrescine substrate. As to conditions: recombinant human DAO, read-out: Inhibitory Activity (IC50, nM) DAO. The procedure, abridged: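 Inhibition of recombinant human DAO (diamine oxidase, R&D systems) was assessed with the Amplex Red Hydrogen Peroxide Assay Kit. Hydrogen peroxide produced from 1 mM putrescine was detected through an HRP-coupled reaction that converts Amplex Red into fluorescent resorufin, read at 544 nm excitation and 590 nm emission. IC50 values came from four-parameter logistic fits in GraphPad Prism.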

In a further assay the target is T3, recombinant human VAP-1 (Homo sapiens, UniProt Q16853).
T3 construct: purchased R&D systems
T3 sequence (Q16853 1-763): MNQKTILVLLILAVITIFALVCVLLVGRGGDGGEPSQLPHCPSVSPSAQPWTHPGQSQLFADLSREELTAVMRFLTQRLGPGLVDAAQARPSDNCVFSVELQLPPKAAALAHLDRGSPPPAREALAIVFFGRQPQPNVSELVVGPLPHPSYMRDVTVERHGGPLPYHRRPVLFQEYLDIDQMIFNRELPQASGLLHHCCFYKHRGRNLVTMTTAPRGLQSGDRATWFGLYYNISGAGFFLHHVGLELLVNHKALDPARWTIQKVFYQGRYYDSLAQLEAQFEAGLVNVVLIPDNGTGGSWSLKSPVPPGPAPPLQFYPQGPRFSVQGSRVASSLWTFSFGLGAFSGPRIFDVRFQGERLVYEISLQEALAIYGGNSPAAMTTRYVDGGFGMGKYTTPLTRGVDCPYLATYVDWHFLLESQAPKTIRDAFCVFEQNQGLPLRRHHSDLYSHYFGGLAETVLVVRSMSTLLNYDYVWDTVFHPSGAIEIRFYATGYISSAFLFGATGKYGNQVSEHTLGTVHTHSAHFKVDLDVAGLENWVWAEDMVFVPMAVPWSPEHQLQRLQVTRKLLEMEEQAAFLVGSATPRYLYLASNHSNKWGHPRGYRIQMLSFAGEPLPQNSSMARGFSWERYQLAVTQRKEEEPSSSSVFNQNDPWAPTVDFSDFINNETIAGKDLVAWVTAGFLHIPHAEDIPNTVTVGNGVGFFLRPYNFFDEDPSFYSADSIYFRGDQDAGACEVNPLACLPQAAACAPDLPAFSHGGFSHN
The experiment in a line: Activity on recombinant human VAP-1, Amplex Red HRP-coupled hydrogen peroxide assay, benzylamine substrate. As to conditions: recombinant human VAP-1, benzylamine substrate, read-out: Inhibitory Activity (IC50, nM) human VAP-1. The method, boiled down: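 8-point 1:3 dilutions, final DMSO <1%; 30 min enzyme preincubation, 37 °C, pH 7.4 phosphate. Start: 1 mM benzylamine + 200 uM Amplex Red + 1 U/mL HRP. Read ex544/em590 over 1-2 h; % rate decrease vs DMSO control, 4-parameter logistic IC50.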

Assay [3] deals with T4, recombinant human MAO-B (monoamine oxidase-B) (Homo sapiens, UniProt P27338).
T4 construct: purchased Sigma-Aldrich
T4 sequence (P27338 1-520): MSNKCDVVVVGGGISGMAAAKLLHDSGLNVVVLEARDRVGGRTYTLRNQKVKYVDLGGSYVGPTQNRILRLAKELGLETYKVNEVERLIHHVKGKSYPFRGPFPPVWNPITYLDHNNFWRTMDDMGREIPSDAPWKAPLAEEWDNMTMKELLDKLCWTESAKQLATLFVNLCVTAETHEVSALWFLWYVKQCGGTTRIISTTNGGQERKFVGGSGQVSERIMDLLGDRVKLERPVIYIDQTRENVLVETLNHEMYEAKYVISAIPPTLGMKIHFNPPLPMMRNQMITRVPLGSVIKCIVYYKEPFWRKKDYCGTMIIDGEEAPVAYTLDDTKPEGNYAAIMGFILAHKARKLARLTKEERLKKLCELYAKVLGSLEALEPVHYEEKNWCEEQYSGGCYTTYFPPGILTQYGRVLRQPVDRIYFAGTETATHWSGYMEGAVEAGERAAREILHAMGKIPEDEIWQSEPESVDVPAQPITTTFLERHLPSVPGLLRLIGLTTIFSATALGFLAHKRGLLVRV
The experiment in a line: Activity on recombinant human MAO-B, Amplex Red method, 1 mM benzylamine substrate. As to conditions: read-out: Inhibitory Activity (IC50, nM) MAO-B. The method, boiled down:
as §1

Where [4] appears, read: 1 mM putrescine, * = between 10 and 100 nM, ** = between 300 and 1000 nM.

Structures can show the parent of a compound that is named as a salt. Where two headings read alike, the source gives them in different places.

As for `NC/C(=C\F)Cn1ncn(-c2cccc(-c3ccc(N4CCOCC4)c(Cl)c3)c2)c1=O` [Example 76, 2-[(2E)-2-(aminomethyl)-3-fluoroprop-2-en-1-yl]-4-[3′-chloro-4′-(morpholin-4-yl)biphenyl-3-yl]-2,4-dihydro-3H-1,2,4-triazol-3-one hydrochloride], the IC50 – broadly, the concentration needed to halve the response being measured – in assay [1] (0.5 mM tyramine) is greater than 100000 nM; in assay [2] (setting [4]), less than 100 nM; on recombinant human VAP-1 (30 min preincubation at 37° C.), 0.64 nM; in assay [3] (1 mM benzylamine) it was greater than 10000 nM.
The like results for `NC/C(=C/F)Cn1ncn(-c2ccc(Br)c(F)c2)c1=O` [Example 13, 2-[(2Z)-2-(aminomethyl)-3-fluoroprop-2-en-1-yl]-4-(4-bromo-3-fluorophenyl)-2,4-dihydro-3H-1,2,4-triazol-3-one] were, in that order, 155 nM, 67 nM, 2.3 nM and 3.3 nM.
`NC/C(=C\F)Cn1ncn(-c2cccc(-c3ccc4c(c3)NC(=O)OC4)n2)c1=O` [Example 200, 7-(6-{1-[(2E)-2-(aminomethyl)-3-fluoroprop-2-en-1-yl]-5-oxo-1,5-dihydro-4H-1,2,4-triazol-4-yl}pyridin-2-yl)-1,4-dihydro-2H-3,1-benzoxazin-2-one hydrochloride]: the IC50 in assay [1] (0.5 mM tyramine substrate) is greater than 100000 nM; in assay [2] (1 mM putrescine substrate), 1.6 nM; on recombinant human VAP-1 it was 0.2 nM; in assay [3] (1 mM benzylamine substrate) it was 1100 nM.
As for `Cc1cc(-c2cccc(-n3cnn(C/C(=C/F)CN)c3=O)c2)ccc1N1CCOCC1` [Example 77, 2-[(2E)-2-(aminomethyl)-3-fluoroprop-2-en-1-yl]-4-[3′-methyl-4′-(morpholin-4-yl)biphenyl-3-yl]-2,4-dihydro-3H-1,2,4-triazol-3-one hydrochloride], the IC50 in assay [1] (0.5 mM tyramine) is greater than 100000 nM; in assay [2] (setting [4]) it was 18 nM; at recombinant human VAP-1 (30 min preincubation at 37° C.), 0.8 nM; in assay [3] (1 mM benzylamine), greater than 10000 nM.
For `Cc1cc(-c2ccc(N3CCNCC3)cc2)cnc1-n1cnn(C/C(=C/F)CN)c1=O` [Example 145, 2-[(2E)-2-(aminomethyl)-3-fluoroprop-2-en-1-yl]-4-{3-methyl-5-[4-(piperazin-1-yl)phenyl]pyridin-2-yl}-2,4-dihydro-3H-1,2,4-triazol-3-one hydrochloride], the IC50 in assay [1] (0.5 mM tyramine) is greater than 100000 nM; in assay [2] (setting [4]), 13000 nM; on recombinant human VAP-1 (30 min preincubation at 37° C.), 0.9 nM; in assay [3] (1 mM benzylamine), greater than 10000 nM.
The like results for `NC/C(=C/F)Cn1ncn(-c2ccc(Br)cn2)c1=O` [Example 29, 2-[(2Z)-2-(aminomethyl)-3-fluoroprop-2-en-1-yl]-4-(5-bromopyridin-2-yl)-2,4-dihydro-3H-1,2,4-triazol-3-one hydrochloride] were, in that order, 2600 nM, 25 nM, 1.2 nM and 28 nM.
For `NC/C(=C\F)Cn1ncn(-c2ncc(-c3ccc4sc(N)nc4c3)cc2F)c1=O` [Example 164, 4-[5-(2-amino-1,3-benzothiazol-5-yl)-3-fluoropyridin-2-yl]-2-[(2E)-2-(aminomethyl)-3-fluoroprop-2-en-1-yl]-2,4-dihydro-3H-1,2,4-triazol-3-one hydrochloride], the IC50 in assay [1] (0.5 mM tyramine substrate) is greater than 100000 nM; in assay [2] (1 mM putrescine substrate), 1.4 nM; at recombinant human VAP-1, 0.25 nM; in assay [3] (1 mM benzylamine substrate) it was 183 nM.
As to `Cc1cc(-c2cccc(-c3noc(C(C)C)n3)c2)cnc1-n1cnn(C/C(=C/F)CN)c1=O` [Example 143, 2-[(2E)-2-(aminomethyl)-3-fluoroprop-2-en-1-yl]-4-(3-methyl-5-{3-[5-(propan-2-yl)-1,2,4-oxadiazol-3-yl]phenyl}pyridin-2-yl)-2,4-dihydro-3H-1,2,4-triazol-3-one hydrochloride], the IC50 in assay [1] (0.5 mM tyramine) is 112000 nM; in assay [2] (setting [4]) it was 12 nM; on recombinant human VAP-1 (30 min preincubation at 37° C.), 0.43 nM; in assay [3] (1 mM benzylamine), 5340 nM.
